According to patent US20080027088A1, “Imidazole-Based Hmg-Coa Reductase Inhibitors” (Warner-Lambert Company, LLC, priority 2004, published 2008):

Assays:
[1] = target: T1, serine palmitoyltransferase (SPT) (Mus musculus, UniProt O35704+P97363); experiment: SPT activity of liver cell-free homogenate (14C-serine, palmitoyl CoA, TLC); type: in vivo, mice; conditions: 0.3 mg/kg/day, 12 weeks
T1 construct: from tissue; host or cells: mouse liver (ApoE KO and C57Bl/6J mice), cell-free homogenate
T1 sequence (P97363 1-560): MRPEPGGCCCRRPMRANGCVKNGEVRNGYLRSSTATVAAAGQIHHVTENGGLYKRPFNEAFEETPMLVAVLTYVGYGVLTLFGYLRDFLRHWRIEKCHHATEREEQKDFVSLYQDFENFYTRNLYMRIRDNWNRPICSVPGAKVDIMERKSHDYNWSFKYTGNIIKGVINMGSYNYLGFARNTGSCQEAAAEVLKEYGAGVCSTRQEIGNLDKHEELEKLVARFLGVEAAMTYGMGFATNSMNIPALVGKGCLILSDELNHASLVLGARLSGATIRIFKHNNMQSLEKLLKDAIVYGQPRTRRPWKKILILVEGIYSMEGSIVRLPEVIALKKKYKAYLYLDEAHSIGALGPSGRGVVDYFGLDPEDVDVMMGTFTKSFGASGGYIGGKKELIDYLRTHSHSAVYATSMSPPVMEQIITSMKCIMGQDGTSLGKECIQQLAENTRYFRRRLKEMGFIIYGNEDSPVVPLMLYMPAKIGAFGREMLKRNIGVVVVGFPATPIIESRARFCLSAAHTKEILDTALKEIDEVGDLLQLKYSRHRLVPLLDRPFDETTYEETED
T1 sequence (O35704 1-473): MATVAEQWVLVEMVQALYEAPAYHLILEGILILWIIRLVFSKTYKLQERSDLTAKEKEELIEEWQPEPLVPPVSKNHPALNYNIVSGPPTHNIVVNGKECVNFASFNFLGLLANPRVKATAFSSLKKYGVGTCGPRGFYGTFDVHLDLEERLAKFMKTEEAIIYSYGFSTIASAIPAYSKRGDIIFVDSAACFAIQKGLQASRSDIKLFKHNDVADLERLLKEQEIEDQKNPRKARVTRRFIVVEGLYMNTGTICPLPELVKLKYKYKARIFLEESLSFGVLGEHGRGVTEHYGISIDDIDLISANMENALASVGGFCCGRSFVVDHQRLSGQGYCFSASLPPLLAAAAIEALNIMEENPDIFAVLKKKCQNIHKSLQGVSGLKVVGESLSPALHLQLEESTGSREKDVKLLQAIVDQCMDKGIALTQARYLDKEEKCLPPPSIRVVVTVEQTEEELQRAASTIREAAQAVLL
T1 sequence (Q8R207 1-71 partner): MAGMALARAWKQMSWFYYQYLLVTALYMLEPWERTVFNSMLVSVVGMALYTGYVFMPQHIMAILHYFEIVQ
Procedure: Liver tissues from each group were homogenized and SPT activity was measured using ^14C-serine and palmitoyl CoA as substrates and thin-layer chromatography (TLC) analysis (K. Gable et al., J. Biol. Chem. 2000;275(11):7597-603). FIGS. 1-A, 1-B, 1-C, 1-D and 1-E. SPT gene expression and enzyme activity. Mice were treated with 0.3 mg/kg/day myriocin for 12 weeks by mixing with Western diet chow. Liver was isolated and total mRNA and cell-free homogenate were prepared. SPT mRNA expression was quantified by quantitative RT-PCR. Expression was described as a ratio of LCB1 (A) or LCB2 (B) mRNA to 18s RNA or to rodent GAPDH RNA (n=5, P>0.05). SPT activity of cell-free homogenate (C) was measured with ^14C-labeled Serine and palmitoyl-coenzyme A as substrates and analyzed by TLC. Relative amounts of 3-ketosphinganine were determined by densitometry scanning. The values reported are mean±SEM (n=3, *P<0.05).

[2] = test system: ApoE KO mice fed a Western diet; experiment: Sphingomyelin in liver, plasma and aorta by LC/MS, 12 weeks; type: in vivo; conditions: 0.3 mg/kg/day
Source text: Analysis of Sphingolipids and Phospholipids by LC/MS and HPLC-Total lipids were extracted by the modified method of Bligh-Dyer extraction (E. G. Bligh and W. J. Dyer, Can. J. Med. Sci. 1959;37:911-917; and D. K. Perry, A. Bielawska and Y. A. Hannun, Methods Enzymol. 2000;312:22-31). A Micromass (Waters Corp., Milford, Mass.) Quattro Ultima tandem quadrupole mass spectrometer with a standard Z-sprayTM ion source, set to electrospray positive ionization mode, with MassLynxTM version 3.5 operating software, was used for all quantitative determinations. Source conditions were typically as follows: capillary 3.5 kV, source temperature 110 degrees C., and desolvation temperature 325 degrees C. Multipliers were set to 650 V, and the dwell time for each analyte was 100 milliseconds. Precursor-to-product ion transitions were established through direct infusion of each compound into the mass spectrometer. The following ion transitions were used for quantification: sphingomyelin (704→184 m/z), sphinganine (302→284 m/z), ceramide (566→264 m/z) and psychosine (462→282 m/z) as an internal standard. For the instrument, at a collision cell pressure of 2×10^-3 mbar argon, cone and collision voltages were as follows: sphingomyelin (45V, 25 eV), sphinganine (45V, 15 eV), ceramide (45V, 25 eV) and psychosine (45V, 25 eV). The liquid chromatography system was composed of twin Shimadzu (Columbia, Md.) LC-10ADvp HPLC pumps with a SCL-10Avp controller (flow rate 0.2 mL/minute), and a LEAP Technologies (Carrboro, N.C.) CTC PAL autosampler. For the quantitative method, the analytical column was a Phenomenex (Torrance, Calif.) Polar-RP (2.0×150 mm, 4 μm) with a […] (Torrance, Calif.) MetaGuard Polaris C8 2.0 mm direct connect (5 μm) guard column. […] Lipid extracts were analyzed by HPLC and evaporative light scattering detector to determine plasma sphingomyelin and phosphatidylcholine (PC) levels (R. Homan and M.K. Anderson, J. Chromatogr. B. Biomed. Sci. Appl. 1998;708:21-6). […] Sphingomyelin levels in liver (A), plasma (B), and aorta (C) were determined by LC/MS. […]

## CCCCCCC(=O)CCCCCC/C=C/C[C@@H](O)[C@H](O)[C@@](N)(CO)C(=O)O [myriocin]
[1]; compared with the C57BI/6J control group
  decrease of SPT activity in the liver: 48%
[1]; compared with untreated Western diet-fed ApoE KO mice
  decrease of SPT activity in the liver: 66%
[2]
  aorta SM levels decreased: 20%
[2]; Western diet-fed ApoE KO mice
  plasma SM lowered: 64%
[2]; vs Western diet-fed ApoE KO mice
  SM accumulation in liver: lowered
